Here are results for one compound from article PMC9504587, “Cytotoxic Drimane-Type Sesquiterpenes from Co-Culture of the Marine-Derived Fungi Aspergillus carneus KMM 4638 and Beauveria felina (=Isaria felina) KMM 4639” (Marine Drugs, 2022).

Assay [1] has as its system normal rat cardiomyocyte H9c2 cell line. Nature of the assay: MTT cytotoxicity assay, H9c2 cells. The class given is cell-based. Particulars: Rattus norvegicus, H9c2, 24 h, 24 h incubation, mean ± SEM. The method, then: (§1) PC-3, MCF-7, C6, and H9c2 cells were cultured in DMEM medium (Biolot, St. Petersburg, Russia) containing 10% fetal bovine serum (Biolot, St. Petersburg, Russia) and 1% penicillin/streptomycin (Biolot, St. Petersburg, Russia) at 37 °C in a humidified atmosphere with 5% (v/v) CO2. The Raji cells were cultured in RPMI-1640 medium (Biolot, St. Petersburg, Russia) containing 10% fetal bovine serum (Biolot, St. Petersburg, Russia) and 1% penicillin/streptomycin (Biolot, St. Petersburg, Russia) under the same conditions.
(§2) Initially, cells were incubated in culture flasks until subconfluent (~80%). For testing, the cells were seeded at concentrations of 5 × 10^3 cells/well (PC-3, MCF-7, Raji, and C6 cells) or 3 × 10^3 cells/well (H9c2 cells), and experiments were started after 24 h.
(§3) The in vitro cytotoxicity of individual substances was determined by the MTT method (3-(4,5-dimethylthiazol-2-yl)-2,5-diphenyltetrazolium bromide), according to the manufacturer’s instructions (Sigma-Aldrich, St. Louis, MO, USA).
(§4) Investigated compounds were dissolved in DMSO at a concentration of 10 mM.
(§5) The cells were treated with the investigated compounds for 24 h or 48 h, and MTT reagent was added to each well of the plate. The vehicle with DMSO at a concentration of 1% was used as a control. The absorbance of formed formazan was measured at λ = 570 nm using a Multiskan FC microplate photometer (Thermo Scientific, Waltham, MA, USA) and expressed in optical units (o.u.). The results are presented as % of viable cells relative to vehicle, and 50% inhibition concentration of cell viability (IC50) was calculated.

Another assay relates to rat glioblastoma C6. The experiment in a line: MTT cytotoxicity assay, C6 cells. It is filed as cell-based. Particulars: Rattus norvegicus, C6, 24 h, 24 h incubation, mean ± SEM. As for the experimental part:
as §1, §2, §3, §4, §5

For assay [2], the system named is human prostate cancer PC-3. Nature of the assay: MTT cytotoxicity assay, PC-3 cells. It is filed as cell-based. The conditions noted are these: Homo sapiens, PC-3, 24 h, 24 h incubation, mean ± SEM. As for the experimental part:
as §1, §2, §3, §4, §5

The next assay has as its system human lymphoma Raji. The experiment in a line: MTT cytotoxicity assay, Raji cells. It is filed as cell-based. The conditions noted are these: Homo sapiens, Raji, 24 h, 24 h incubation, mean ± SEM. As for the experimental part: as §1, §2, §3, §4, §5
Assay [3] deals with human breast cancer MCF-7. The experiment in a line: MTT cytotoxicity assay, MCF-7 cells. It is filed as cell-based. As for the experimental part:
as §1, §2, §3, §4, §5

The test system of assay [4] is MCF-7 cells. The experiment in a line: Apoptosis profile by flow cytometry (Muse annexin V and dead cell kit). The conditions noted are these: 10 µM, 48 h. The class given is cell-based, human. The method, then: After incubation, culture media were collected; then, cells were washed twice with cold PBS and incubated with trypsin-EDTA solution for 1 min. The cell suspension was washed twice by centrifugated at 250× g for 4 min with cold PBS and used for apoptosis detection by a Muse® annexin V and dead cell kit in accordance with manufacturer’s instructions (Luminex, Austin, TX, USA). Fluorescence was measured with a Muse® cell analyzer (Luminex, Austin, TX, USA), and data were processed by Muse 1.5 analysis software (Luminex, Austin, TX, USA). The proportion of apoptotic cells was expressed as a percentage.

Assay [5] deals with MCF-7 cells. The experiment in a line: Total caspase activity by flow cytometry (Muse multicaspase kit). It is filed as cell-based, human. The conditions noted are these: 10 µM, 48 h; control 4.7%. As for the experimental part:
The influence of the compounds on the percentage of live MCF-7 cells (caspase−/7-AAD−), live MCF-7 cells with caspase activity (caspase+/7-AAD−), dead MCF-7 cells with caspase activity […] MCF-7 cells (caspase−/7-AAD+) was measured by a Muse® multicaspase kit (Luminex, Austin, TX, USA). The kit utilizes a VAD-peptide derivatized with a fluorescent group called fluorescent-labeled inhibitor of caspases (FLICA). The peptide binds to activated caspases, resulting in a fluorescent signal proportional to the number of active caspases in the cell. Fluorescent dye 7-AAD was used as a dead cell marker in this assay.
After incubation, culture media were collected, and cells were washed twice with cold PBS and incubated in trypsin-EDTA solution for 1 min. The cell suspension was washed twice by centrifugation at 250× g for 4 min with cold PBS and then used for caspase activity detection by a Muse® multicaspase kit (caspases 1, 3, 4, 5, 6, 7, 8, and 9) in accordance with manufacturer’s instructions (Luminex, Austin, TX, USA). Fluorescence was measured with a Muse® cell analyzer (Luminex, Austin, TX, USA), and data were processed by Muse 1.5 analysis software (Luminex, Austin, TX, USA).

Assay [6] relates to MCF-7 cells. The experiment in a line: Cell cycle analysis by flow cytometry (propidium iodide). The class given is cell-based, human. The conditions noted are these: 10 µM, 48 h. The method, then:
After incubation, cells were trypsinized, harvested, washed with PBS, and fixed with ice-cold 70% ethanol in a dropwise manner prior to storage at −20 °C overnight. The cells were then washed with PBS, incubated with 200 μg/mL RNAse (PanReac, AppliChem, Darmstadt, Germany) and 20 μg/mL of propidium iodide (Sigma-Aldrich, St. Louis, MO, USA) for 30 min at 37 °C, and the DNA content was analyzed with a Muse® cell analyzer (Luminex, Austin, TX, USA). The data were processed by Muse 1.5 analysis software (Luminex, Austin, TX, USA). The proportion of cells in each phase of the cell cycle was expressed as a percentage.

Assay [7] concerns H9c2, C6, PC-3, Raji and MCF-7 cells. Nature of the assay: MTT cytotoxicity, summary statements over several cell lines. It is filed as cell-based. The conditions noted are these: 24 h, range over both compounds and three cell lines. The method, then: as §3, §4, §5
The test system of assay [8] is human leukemia HL-60 cells. More on the design: method as in PMID 19769341. The conditions noted are these: read-out: IC50, HL-60 cell viability; cited from earlier work.
The test system of assay [9] is human lung cancer A549 cells. More on the design: method as in PMID 19769341. The conditions noted are these: cited from earlier work.
Another assay has as its system lymphoma L5178Y. More on the design: method as in PMID 19778087. The conditions noted are these: cited from earlier work.
Another assay concerns PC 12. Also noted: method as in PMID 19778087. The conditions noted are these: cited from earlier work.
The next assay deals with HeLa cells. More on the design: method as in PMID 19778087. The conditions noted are these: cited from earlier work.
In another assay the target is PTP1B. Also noted: method as in earlier work. Particulars: cell-free assay; cited from earlier work.
For a further assay, the target named is SHP2. Also noted: method as in earlier work. Particulars: cell-free assay; cited from earlier work.

In brackets after ≈: the same amount, converted by molar mass. Where two headings read alike, the source gives them in different places.

Take `CC1(C)CCC[C@@]2(C)[C@H]1[C@H](OC(=O)/C=C/C=C/C=O)C=C1COC(=O)[C@@]12O` [Compound 9, ustusolate E]: the 50% inhibitory concentration (IC50) in assay [1] worked out at 66.9 ± 3 µM; with rat glioblastoma C6, 54.3 ± 3.3 µM; in assay [2] it was 50.1 ± 1.8 µM; with human lymphoma Raji, 88.1 ± 1.3 µM; in assay [3] (48 h incubation, concentrations up to 10 µM, read-out: IC50, MCF-7 cell viability, prolonged incubation), 10.1 ± 0.5 µM; in [3] (Homo sapiens, MCF7, 24 h, 24 h incubation, mean ± SEM, read-out: IC50, MCF-7), 57.8 ± 0.5 µM. In addition, the IC50 in assay [3] (Homo sapiens, MCF7, 48 h, 48 h incubation, concentrations up to 10 µM, read-out: IC50, MCF-7 cell viability, prolonged incubation) was 10 µM; in assay [7] it was 54.3 to 88.1 µM; in assay [8] it was 8 µM; in the assay on lymphoma L5178Y, 1.6 µM; with PC 12, 19.3 µM; in the assay with HeLa cells it was 15.8 µM. Further, the “decrease in MCF-7 cell viability” value in assay [3] (10 µM, 48 h) is given as ~50%. Besides, the “amount of apoptotic cells (early and late)” value with MCF-7 cells [4] (control 1.7%) turned out to be 6.8%. Besides, the “amount of living cells” value with MCF-7 cells [4] (control 98.6%) is 94.1%. Also, the “percentage of cells exhibiting caspase activity (living and 7-AAD-labeled)” value in the assay on MCF-7 cells [5] is 12.4%. The subG0 cells in the assay with MCF-7 cells [6] (control 5.4%) is on record as 24.7%. In the assay on MCF-7 cells [6] (relative to control), the “decrease in the percentage of cells in the S phase” value stood at 41.2%. The “increase of the percentage of cells in the G2/M phase” value in the assay with MCF-7 cells [6] (relative to control) is reported as 67.3%. Besides, the “reduction of the percentage of cells in the G0/G1 phase” value in the assay with MCF-7 cells [6] (relative to control) is recorded as 33.3%. In the assay on MCF-7 cells [6] (versus control), the “increase of the subG0 population of cells” value amounted to 4.6 times. In addition, the “toxicity against A549 cells” value in assay [9] is on record as “nontoxic”. Besides, the “IC50, PTP1B enzyme activity” value at PTP1B is 50 µg/mL (≈ 134 µM). In addition, the “IC50, SHP2 enzyme activity” value on SHP2 is 40 µg/mL (≈ 107 µM).
